Consider 5 compounds from US20060063784A1, “Method of using substituted pyrazolo [1,5-a] pyrimidines” (priority 2004, published 2006).

One data set relates to LoVo Colon cell line. In words: Cytotoxicity assay using LoVo colon cell line, SRB. It is filed as cell-based. Particulars: Homo sapiens, 96 h; Cellular activity in LoVo cell; 4 days incubation, SRB; read-out: Inhibition of LoVo. A digest of the protocol:
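LoVo cells (4000/well, RPMI 1640 with 10% FBS, 37 °C, 7% CO2) seeded overnight, then exposed 4 days to serial dilutions spanning 5 pM-20 μM or 170 pg/ml-10 μg/ml. Survival by SRB staining; IC50 from curves relative to untreated controls.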

Data set [1] deals with 80S14 (p21-deficient) cells. In words: Cytotoxicity assay using isogenic cell lines: IC50 in 80S14 (p21-deficient) cells, SRB. It is filed as cell-based, human. Conditions: Homo sapiens, 120 h; 80S14 (p21-deficient) cells, 5 days, SRB; class symbols; read-out: IC50 for 80S14. A digest of the protocol: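 80S14 (p21-deficient) cells seeded at 12,000 cells/well overnight, then exposed 5 days at 37 °C to serial dilutions (5 pM–50 μM or 170 pg/ml–10 μg/ml). TCA-fixed, sulforhodamine B-stained, absorbance at 560 nm; IC50 taken from cytotoxicity curves versus untreated controls.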

Broadly, the melting point is the temperature of the solid-liquid transition. Compound `O=C(c1cccs1)c1cnn2c(Cl)ccnc12` [Example 390, (7-Chloropyrazolo[1,5-a]pyrimidin-3-yl)(thien-2-yl)methanone] showed a melting point of 148 to 150 °C. Also, the IC50 with LoVo Colon cell line fell in the range of 1000 to 20000 nM. In data set [1], the IC50 lay in the range of 1000 to 10000 nM.

`O=C(Nc1cccc(-c2ccnc3c(C(=O)c4cccs4)cnn23)c1)OCCCN1CCS(=O)(=O)CC1` [Example 420, 3-(1,1-Dioxidothiomorpholin-4-yl)propyl 3-[3-(thien-2-ylcarbonyl)pyrazolo[1,5-a]pyrimidin-7-yl]phenylcarbamate] returned a melting point of 148 to 159 °C. Further, in the data set with LoVo Colon cell line, the IC50 was in the range of 100 to 1000 nM. Moreover, in data set [1], the IC50 was below 1000 nM.

With `COc1ccccc1/C=C/CNc1cccc(-c2ccnc3c(C(=O)c4cccs4)cnn23)c1` [Example 395, [7-(3-{[(2E)-3-(2-Methoxyphenyl)prop-2-enyl]amino}phenyl)pyrazolo[1,5-a]pyrimidin-3-yl](thien-2-yl)methanone], the melting point lay within 128 to 131 °C. For the same compound, the IC50 in the data set with LoVo Colon cell line was in the range of 1000 to 20000 nM. Further, the IC50 in data set [1] was 10000 to 50000 nM.

In turn, `O=C(Nc1cccc(-c2ccnc3c(C(=O)c4cccs4)cnn23)c1)c1ccccc1F` [Example 358, 2-Fluoro-N-{3-[3-(thien-2-ylcarbonyl)pyrazolo[1,5-a]pyrimidin-7-yl]phenyl}benzamide] came in with a melting point of 190 to 191 °C. The IC50 with LoVo Colon cell line was below 100 nM. The IC50 in data set [1] is below 1000 nM.

For `O=C(c1cccs1)c1cnn2c(-c3cccc(-c4ccn(CCN5CCCCC5)n4)c3)ccnc12` [Example 519, (7-{3-[1-(2-piperidin-1-ylethyl)-1H-pyrazol-3-yl]phenyl}pyrazolo[1,5-a]pyrimidin-3-yl)(thien-2-yl)methanone], the melting point was found to be 62 °C. Besides, in the data set with LoVo Colon cell line, the IC50 lay within 100 to 1000 nM. Moreover, the IC50 in data set [1] was 1000 to 10000 nM.
